Experimental data as given in US7235379B2, “Method and medium for the detection/identification of microorgranisms with esterase activity” (Bio Merieux, priority 2000, dated 2007).
Structures can show the parent of a compound that is named as a salt.

Key:
Format in all cases: cell-based
Candida tropicalis 030 = test: Ex.3 colony coloration, 5-bromo-4-chloro-3-indolyl nonanoate 250 mg/l, DMSO/Tween 20; conditions: 1 ml/l (2nd col); 48 h; also: key: 0: no activity; 0.1: trace of coloration; 0.5: very pale coloration; 1: distinct coloration of low intensity; 2: clear coloration of medium intensity; 3: intense coloration; 4: very intense coloration
Protocol: The esterase substrate tested is 5-bromo-4-chloro-3-indolyl nonanoate. A 40 g/l stock solution of substrate is prepared in a mixture of 40% dimethyl sulfoxide and 60% Tween 20. A sufficient volume is added to a supercooled MacConkey medium (without neutral red) to give a substrate concentration of 250 mg/l.
(§1) Microorganisms originating from the Applicant's collection were inoculated onto this medium from a 0.5 McFarland suspension by isolation in three quadrants. The dishes were incubated at 37° C. for 48 hours. The colonies formed were examined visually after 24 and 48 hours of incubation. The coloration of these colonies and the intensity of this coloration were noted.
(§2) The intensity of coloration corresponds to an arbitrary scale defined as follows:

[1] = test system: Salmonella enteritidis 002; test: Ex.2 colony coloration, 5-bromo-3-indolyl nonanoate, methanol/bile salts, MacConkey; as to intensity of coloration: key: 0: no activity; 0.1: trace of coloration; 0.5: very pale coloration; 1: distinct coloration of low intensity; 2: clear coloration of medium intensity; 3: intense coloration; 4: very intense coloration
Protocol: (§3) The esterase substrate tested is 5-bromo-3-indolyl nonanoate. A 25 g/l stock solution of substrate is prepared in methanol to which 5 g/l of bile salts have been added. A sufficient volume is added to a supercooled MacConkey medium (without neutral red) to give a substrate concentration of 500 mg/l.
as §1, §2

[2] = test system: Salmonella enteritidis 002; test: Ex.1 colony coloration, 5-bromo-3-indolyl nonanoate, DMSO/Tween 20, MacConkey
Protocol: The esterase substrate tested is 5-bromo-3-indolyl nonanoate. A 40 g/l stock solution of substrate is prepared in a mixture of 40% dimethyl sulfoxide and 60% Tween 20. A sufficient volume is added to a supercooled MacConkey medium (without neutral red) to give a substrate concentration of 500 mg/l.
as §1, §2

[3] = test system: Pseudomonas aeruginosa 165; test: Ex.2 colony coloration, 5-bromo-3-indolyl nonanoate, methanol/bile salts, MacConkey
Protocol: as §3, §1, §2

Salmonella arizonae 018 = test: Ex.4 colony coloration, 5-bromo-3-indolyl nonanoate, DMSO/Tween 20, MacConkey; conditions: 8 ml/l Tergitol 4; as to intensity of coloration: key: 0: no activity; 0.1: trace of coloration; 0.5: very pale coloration; 1: distinct coloration of low intensity; 2: clear coloration of medium intensity; 3: intense coloration; 4: very intense coloration
Salmonella spp. 017 = test: as above; conditions: 8 ml/l Tergitol 4
[4] = test system: Salmonella enteritidis 006; test: as above; conditions: 8 ml/l Tergitol 4
Enterobacter cloacae 086 = test: Ex.2 colony coloration, 5-bromo-3-indolyl nonanoate, methanol/bile salts, MacConkey; as to intensity of coloration: key: 0: no activity; 0.1: trace of coloration; 0.5: very pale coloration; 1: distinct coloration of low intensity; 2: clear coloration of medium intensity; 3: intense coloration; 4: very intense coloration
Protocol: as §3, §1, §2

How did the intensity of coloration (Candida tropicalis 030) turn out when `CCCCC(CC)CCC(CC(C)C)OS(=O)(=O)O` (centres unmarked) [Tergitol 4, 7-ethyl-2-methyl-4-undecanoate hydrogensulfate or its sodium salt] was run?
Its intensity of coloration is 3.

And the color ([1]; 2 ml/l, 24 h)?
Its color is “gray”.

What about the intensity of coloration ([1]; 2 ml/l, 24 h) of the same compound?
Its intensity of coloration is 2.

What about the color ([1]; 2 ml/l, 48 h) of the same compound?
Its color is “gray”.

What about the intensity of coloration ([1]; 2 ml/l, 48 h) of the same compound?
Its intensity of coloration is 3.

And the color ([1]; 4 ml/l, 24 h)?
Its color is “gray”.

What about the intensity of coloration ([1]; 4 ml/l, 24 h) of the same compound?
Its intensity of coloration is 3.

What about the color ([1]; 4 ml/l, 48 h) of the same compound?
The color was “gray”.

What about the intensity of coloration ([1]; 4 ml/l, 48 h) of the same compound?
The intensity of coloration was 3.

What about the color ([1]; 8 ml/l, 24 h) of the same compound?
Its color is “gray”.

And the intensity of coloration ([1]; 8 ml/l, 24 h)?
Its intensity of coloration is 0.5.

What about the color ([1]; 8 ml/l, 48 h) of the same compound?
The color was “gray”.

What about the intensity of coloration ([1]; 8 ml/l, 48 h) of the same compound?
Its intensity of coloration is 2.

And the color ([1]; 16 ml/l, 24 h)?
The color was “gray”.

And the intensity of coloration ([1]; 16 ml/l, 24 h)?
The intensity of coloration was 0.1.

And the color ([1]; 16 ml/l, 48 h)?
Its color is “gray”.

And the intensity of coloration ([1]; 16 ml/l, 48 h)?
Its intensity of coloration is 1.

And the color ([2]; 2 ml/l, 24 h)?
The color was “gray”.

And the intensity of coloration ([2]; 2 ml/l, 24 h)?
Its intensity of coloration is 2.

And the color ([2]; 2 ml/l, 48 h)?
Its color is “gray”.

And the intensity of coloration ([2]; 2 ml/l, 48 h)?
The intensity of coloration was 2.

And the color ([2]; 4 ml/l, 24 h)?
The color was “gray”.

What about the intensity of coloration ([2]; 4 ml/l, 24 h) of the same compound?
The intensity of coloration was 3.

And the color ([2]; 4 ml/l, 48 h)?
Its color is “gray”.

And the intensity of coloration ([2]; 4 ml/l, 48 h)?
The intensity of coloration was 3.

What about the color ([2]; 8 ml/l, 24 h) of the same compound?
The color was “gray”.

What about the intensity of coloration ([2]; 8 ml/l, 24 h) of the same compound?
The intensity of coloration was 3.5.

And the color ([2]; 8 ml/l, 48 h)?
The color was “gray”.

What about the intensity of coloration ([2]; 8 ml/l, 48 h) of the same compound?
The intensity of coloration was 3.5.

What about the color ([2]; 16 ml/l, 24 h) of the same compound?
Its color is “gray”.

What about the intensity of coloration ([2]; 16 ml/l, 24 h) of the same compound?
The intensity of coloration was 3.5.

What about the color ([2]; 16 ml/l, 48 h) of the same compound?
The color was “gray”.

What about the intensity of coloration ([2]; 16 ml/l, 48 h) of the same compound?
Its intensity of coloration is 3.5.

What about the color ([3]; 2 ml/l, 24 h) of the same compound?
Its color is “gray”.

And the intensity of coloration ([3]; 2 ml/l, 24 h)?
The intensity of coloration was 3.5.

And the color ([3]; 2 ml/l, 48 h)?
The color was “gray”.

And the intensity of coloration ([3]; 2 ml/l, 48 h)?
The intensity of coloration was 3.5.

And the color ([3]; 4 ml/l, 24 h)?
The color was “gray”.

What about the intensity of coloration ([3]; 4 ml/l, 24 h) of the same compound?
Its intensity of coloration is 4.

What about the color ([3]; 4 ml/l, 48 h) of the same compound?
Its color is “gray”.

And the intensity of coloration ([3]; 4 ml/l, 48 h)?
Its intensity of coloration is 4.

What about the color ([3]; 8 ml/l, 24 h) of the same compound?
Its color is “gray”.

And the intensity of coloration ([3]; 8 ml/l, 24 h)?
Its intensity of coloration is 4.

What about the color ([3]; 8 ml/l, 48 h) of the same compound?
Its color is “gray”.

What about the intensity of coloration ([3]; 8 ml/l, 48 h) of the same compound?
The intensity of coloration was 4.

And the color ([3]; 16 ml/l, 24 h)?
Its color is “gray”.

And the intensity of coloration ([3]; 16 ml/l, 24 h)?
The intensity of coloration was 4.

And the color ([3]; 16 ml/l, 48 h)?
Its color is “gray”.

What about the intensity of coloration ([3]; 16 ml/l, 48 h) of the same compound?
The intensity of coloration was 4.

And the color (Salmonella arizonae 018; 24 h)?
Its color is “gray”.

And the intensity of coloration (Salmonella arizonae 018; 24 h)?
The intensity of coloration was 3.5.

And the color (Salmonella arizonae 018; 48 h)?
Its color is “gray”.

And the intensity of coloration (Salmonella arizonae 018; 48 h)?
The intensity of coloration was 3.5.

What about the color (Salmonella spp. 017; 24 h) of the same compound?
Its color is “gray”.

What about the intensity of coloration (Salmonella spp. 017; 24 h) of the same compound?
The intensity of coloration was 2.5.

And the color (Salmonella spp. 017; 48 h)?
Its color is “gray”.

And the intensity of coloration (Salmonella spp. 017; 48 h)?
Its intensity of coloration is 3.5.

And the color ([4]; 24 h)?
The color was “gray”.

And the intensity of coloration ([4]; 24 h)?
Its intensity of coloration is 3.

What about the color ([4]; 48 h) of the same compound?
Its color is “gray”.

And the intensity of coloration ([4]; 48 h)?
Its intensity of coloration is 3.

What about the color (Enterobacter cloacae 086; 2 ml/l, 24 h) of the same compound?
The color was “gray”.

And the intensity of coloration (Enterobacter cloacae 086; 2 ml/l, 24 h)?
The intensity of coloration was 0.5.

What about the color (Enterobacter cloacae 086; 2 ml/l, 48 h) of the same compound?
The color was “gray”.

What about the intensity of coloration (Enterobacter cloacae 086; 2 ml/l, 48 h) of the same compound?
The intensity of coloration was 2.

And the color (Enterobacter cloacae 086; 4 ml/l, 24 h)?
Its color is “gray”.

What about the intensity of coloration (Enterobacter cloacae 086; 4 ml/l, 24 h) of the same compound?
Its intensity of coloration is 1.

What about the color (Enterobacter cloacae 086; 4 ml/l, 48 h) of the same compound?
The color was “gray”.

And the intensity of coloration (Enterobacter cloacae 086; 4 ml/l, 48 h)?
Its intensity of coloration is 3.

What about the color (Enterobacter cloacae 086; 8 ml/l, 24 h) of the same compound?
Its color is “gray”.

What about the intensity of coloration (Enterobacter cloacae 086; 8 ml/l, 24 h) of the same compound?
The intensity of coloration was 0.5.

What about the color (Enterobacter cloacae 086; 8 ml/l, 48 h) of the same compound?
Its color is “gray”.

And the intensity of coloration (Enterobacter cloacae 086; 8 ml/l, 48 h)?
The intensity of coloration was 1.

And the color (Enterobacter cloacae 086; 16 ml/l, 24 h)?
The color was “gray”.

And the intensity of coloration (Enterobacter cloacae 086; 16 ml/l, 24 h)?
The intensity of coloration was 0.5.

And the color (Enterobacter cloacae 086; 16 ml/l, 48 h)?
The color was “gray”.

And the intensity of coloration (Enterobacter cloacae 086; 16 ml/l, 48 h)?
Its intensity of coloration is 1.
